The values below are quoted from earlier work in patent US6326360A, “Bubbling enteric coated preparations” (Grelan Pharmaceuticals Co., Ltd., priority 1998, dated 2001).

For this data set the following is noted: oral tablets.

Regarding `CC1(C)[C@@H](O[C@H]2O[C@H](C(=O)O)[C@@H](O)[C@H](O)[C@H]2O[C@@H]2O[C@H](C(=O)O)[C@@H](O)[C@H](O)[C@H]2O)CC[C@]2(C)[C@H]3C(=O)C=C4[C@@H]5C[C@@](C)(C(=O)O)CC[C@]5(C)CC[C@@]4(C)[C@]3(C)CC[C@@H]12` [glycyrrhizin], the “decomposition of glycyrrhizin in the stomach (in words)” value was “quickly decomposed into glycyrrhetinic acid in the stomach” and the “transfer of unchanged glycyrrhizin into blood (in words)” value was “hardly observed”.
